Test results: patent US9394285B2 (Pfizer Inc., priority 2013, dated 2016)
pEC50: −log10 of the molar value.

Molecular target: human AMPK (full-length γ1, β1 and α1 subunits) (Homo sapiens (Human), UniProt Q13131+Q9Y478)
Test: AMPK in vitro biochemical assay (33P-based, SAMS peptide, PP2A dephosphorylation)
Details: for pEC50: activation of phosphorylated AMPK, 33P-ATP, SAMS peptide, PP2A treatment, 4-parameter fit; for Emax: counts as % of positive control wells (enzyme, allosteric activator or AMP, PP2A and substrate), read-out: Maximum
Text: We designed a tricistronic AMPK expression construct that included open reading frames encoding the full-length γ1, β1 and α1 subunits of human AMPK with a ribosome-binding site (RBS) ahead of each coding region and subcloned this into pET-14b expression vector (Novagen, Madison, Wis.) using standard molecular biology techniques. AMPK tricistronic construct was transformed into E. coli BL21-CodonPlus™ (DE3)-RIPL strain (Stratagene) and transformants were selected on LB (Luria-Bertani) agar plates containing ampicillin (100 μg/ml). […] Optical density sample measurements were made on an UltroSpec 2000 spectrophotometer (Pharmacia Biotech) at 600 nm. When the cell density reached ˜0.9 OD, the temperature was reduced to 18° C. and the culture was induced at 18° C. with 0.1 mM Isopropylthiogalactoside (IPTG). […] The cell pellets were aliquoted into four portions, flash frozen in liquid nitrogen and were stored at −80° C. until purification. For purification, frozen cell paste was thawed and resuspended in 50 ml lysis buffer (50 mM Tris, pH 8.0, 150 mM NaCl, 10% glycerol, 2 mM Tris-2-carboxyethyl phosphine (TCEP), 20 mM imidazole and 0.001% Triton X-100). After sonication, insoluble material was removed by centrifugation at 15,000 rpm in a Sorvall® RC5 plus centrifuge for 30 min at 4° C. and the supernatant was loaded onto a 5 ml HisTrap™ HP column (GE Healthcare, Piscataway, N.J.) and washed with five column volumes of lysis buffer. Bound proteins were eluted using an elution buffer containing 300 mM imidazole. Fractions containing AMPK subunits were pooled based on SDS-10% PAGE analysis and dialyzed overnight in dialysis buffer (50 mM Tris, pH 8.0, 150 mM NaCl, 10% glycerol, 2 mM TCEP, and 0.001% Triton X-100). […] The phosphorylated AMPK complex was re-purified on HisTrap™ HP column as before, dialyzed over night in dialysis buffer. The phosphorylated AMPK complex was further purified by gel filtration chromatography with a Superdex 200 HiLoad 16/60 column (GE Healthcare) in SEC buffer (50 mM Tris, pH 8.0, 150 mM NaCl, 10% glycerol, 2 mM TCEP, and 0.001% Triton X-100).
The harvest time (72 hours post infection) was indicated by percent cell viability (to 85-90%) and increased cell diameter (3-4 μm). […] For purification, the cell paste was resuspended in 500 mL lysis buffer (50 mM Tris pH 8.0, 150 mM NaCl, 25 mM imidazole, 10% glycerol, 2 mM MgCl2, 2 mM TCEP+protease inhibitor cocktail. After lysis, cellular debris was removed by centrifugation at 36K×g for 1 hour. The resulting supernatant was filtered at 0.2 micron before applying to a 1 mL nickel charged IMAC column (HisTrap, GE). The bound resin was washed to baseline with 50 CV of 50 mM Tris pH 8.0, 150 mM NaCl, 25 mM imidazole, 10% glycerol, 2 mM MgCl2, 2 mM TCEP before eluting over a 20 CV gradient to 100% with wash buffer containing 500 mM imidazole. Pooled fractions containing PP2A were combined and diluted 10× with 50 mM Tris pH 8.0, 10% glycerol, 1 mM TCEP and applied to a 1 mL AIEX resin (HiTrap QFF, GE). The bound resin was washed with dilution buffer and PP2A was eluted over a 20 CV gradient to 100% 50 mM Tris pH 8.0, 500 mM NaCl, 10% glycerol, 1 mM TCEP and was further diluted 1:1 with 50 mM Tris pH 8.0, 150 mM NaCl, 10% glycerol, and 1 mM TCEP buffer.
The biochemical EC50 (half-maximal concentration required for full activation) of compounds for the activation of AMPK was evaluated by ^33P-based assay using SAMS peptide (commercially available) derived from ACC-1. Twenty μl of phosphorylated AMPK diluted in assay buffer, (50 mM HEPES, 1 mM EGTA, 10 mM MgCl2, 0.25 mM DTT, 0.01% Tween-20, 0.01% BSA (pH 7.5)) was added to 384 well plates containing 1 μL of test compound. Following a fifteen minute room temperature incubation, 10 μL of protein phosphatase PP2A was added to the plate to dephosphorylate pThr172 of AMPK. […] The reaction was terminated after 60 minutes incubation at room temperature by the addition of 15 μL of 2% H3PO4.

Chain of human AMPK (full-length γ1, β1 and α1 subunits) (Q13131 whole entry): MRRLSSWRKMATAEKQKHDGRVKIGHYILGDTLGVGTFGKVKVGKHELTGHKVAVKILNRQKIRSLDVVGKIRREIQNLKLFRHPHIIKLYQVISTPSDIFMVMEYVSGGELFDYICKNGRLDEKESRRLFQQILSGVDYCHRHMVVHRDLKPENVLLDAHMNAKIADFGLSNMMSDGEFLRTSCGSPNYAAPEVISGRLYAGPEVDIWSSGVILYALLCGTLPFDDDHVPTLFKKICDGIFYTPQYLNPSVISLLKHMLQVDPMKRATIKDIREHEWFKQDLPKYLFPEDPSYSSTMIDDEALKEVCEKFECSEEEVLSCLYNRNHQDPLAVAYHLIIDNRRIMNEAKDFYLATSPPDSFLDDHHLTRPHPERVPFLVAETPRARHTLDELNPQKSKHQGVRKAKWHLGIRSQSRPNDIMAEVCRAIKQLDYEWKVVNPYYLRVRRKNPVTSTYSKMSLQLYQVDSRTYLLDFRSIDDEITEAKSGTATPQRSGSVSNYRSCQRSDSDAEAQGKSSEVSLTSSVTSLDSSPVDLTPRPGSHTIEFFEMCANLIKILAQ
Chain of human AMPK (full-length γ1, β1 and α1 subunits) (Q9Y478 whole entry): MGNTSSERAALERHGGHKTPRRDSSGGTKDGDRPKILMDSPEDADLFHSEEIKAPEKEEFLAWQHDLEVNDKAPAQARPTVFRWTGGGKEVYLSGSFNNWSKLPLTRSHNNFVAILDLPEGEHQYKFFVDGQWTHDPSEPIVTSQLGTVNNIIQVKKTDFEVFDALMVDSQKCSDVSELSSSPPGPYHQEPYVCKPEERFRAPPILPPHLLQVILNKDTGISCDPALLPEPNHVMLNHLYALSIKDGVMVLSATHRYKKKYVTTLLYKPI
Chain of human AMPK (full-length γ1, β1 and α1 subunits) (P54619 whole entry partner): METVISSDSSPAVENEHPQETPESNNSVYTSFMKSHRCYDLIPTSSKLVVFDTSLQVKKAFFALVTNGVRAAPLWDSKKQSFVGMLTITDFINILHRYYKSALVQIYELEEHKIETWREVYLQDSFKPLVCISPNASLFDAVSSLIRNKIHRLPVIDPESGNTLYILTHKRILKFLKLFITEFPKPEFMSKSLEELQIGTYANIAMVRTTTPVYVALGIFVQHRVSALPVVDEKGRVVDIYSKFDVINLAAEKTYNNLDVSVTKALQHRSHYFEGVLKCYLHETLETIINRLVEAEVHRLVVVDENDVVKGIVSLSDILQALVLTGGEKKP

pEC50 | Emax [%] | Compound
7.11 | 88.9 | COc1nc(-c2cc3c(C(=O)O)c[nH]c3cc2Cl)ccc1N1CCC(O)C1 (stereo not shown) [Example 149, 6-chloro-5-[5-(3-hydroxypyrrolidin-1-yl)-6-methoxypyridin-2-yl]-1H-indole-3-carboxylic acid]
5.70 | 68 | O=C(O)c1c[nH]c2cc(Cl)c(-c3ccc(C4(C(=O)O)CCC4)cc3)cc12 [Example 78, 5-[4-(1-carboxycyclobutyl)phenyl]-6-chloro-1H-indole-3-carboxylic acid]
9.30 | 91 | O=C(O)c1c[nH]c2cc(Cl)c(-c3ccc(C4(CO)CC4)cc3)cc12 [Example 75, 6-chloro-5-{4-[1-(hydroxymethyl)cyclopropyl]phenyl}-1H-indole-3-carboxylic acid]
8.08 | 92.9 | COc1nc(N2CCC(O)C2)ccc1-c1cc2c(C(=O)O)c[nH]c2cc1Cl (stereo not shown) [Example 161, 6-chloro-5-[6-(3-hydroxypyrrolidin-1-yl)-2-methoxypyridin-3-yl]-1H-indole-3-carboxylic acid]
6.43 | 102 | O=C(O)c1n[nH]c2cc(Cl)c(-c3ccc4c(c3)OCCO4)cc12 [Example 121, 6-Chloro-5-(2,3-dihydrobenzo[b][1,4]dioxin-6-yl)-1H-indazole-3-carboxylic acid]
6.77 | 82 | O=C(O)c1c[nH]c2cc(Cl)c(-c3ccc(N4CCCC4=O)cc3)cc12 [Example 64, 6-chloro-5-[4-(2-oxopyrrolidin-1-yl)phenyl]-1H-indole-3-carboxylic acid]
7.78 | – | O=C(O)c1c[nH]c2cc(F)c(-c3ccc(C4CCCO4)cc3)c(F)c12 (single isomer, unassigned) [Example 152, 4,6-difluoro-5-[4-(tetrahydrofuran-2-yl)phenyl]-1H-indole-3-carboxylic acid]
8.11 | 65 | COc1cc(-c2cc3c(C(=O)O)c[nH]c3cc2Cl)ccc1C1(O)COC1 [Example 60, 6-chloro-5-[4-(3-hydroxyoxetan-3-yl)-3-methoxyphenyl]-1H-indole-3-carboxylic acid]
7.27 | 62 | O=C(O)c1c[nH]c2cc(F)c(-c3ccc(C4(O)COC4)cc3)c(F)c12 [Example 20, 4,6-difluoro-5-[4-(3-hydroxyoxetan-3-yl)phenyl]-1H-indole-3-carboxylic acid]
8.18 | 119 | CC(C)(CO)c1ccc(-c2cc3c(C(=O)O)c[nH]c3cc2Cl)cc1O [Example 148, 6-chloro-5-[3-hydroxy-4-(1-hydroxy-2-methylpropan-2-yl)phenyl]-1H-indole-3-carboxylic acid]
7.57 | 95 | CC(C)(CO)c1ccc(-c2cc3c(C(=O)O)n[nH]c3cc2Cl)cc1 [Example 115, 6-Chloro-5-(4-(1-hydroxy-2-methylpropan-2-yl)phenyl)-1H-indazole-3-carboxylic acid]
7.41 | 100 | O=C(O)c1c[nH]c2cc(Cl)c(-c3ccc(C4CCOCC4)cc3)cc12 [Example 136, 6-Chloro-5-[4-(tetrahydro-2H-pyran-4-yl)phenyl]-1H-indole-3-carboxylic acid]
7.44 | 88 | O=C(O)c1n[nH]c2cc(Cl)c(-c3ccc(C4CCOCC4)cc3)cc12 [Example 104, 6-Chloro-5-(4-(tetrahydro-2H-pyran-4-yl)phenyl)-1H-indazole-3-carboxylic acid]
8.21 | 84 | COc1nc(N2CC[C@H](O)C2)ccc1-c1cc2c(C(=O)O)c[nH]c2cc1Cl [Example 184, 6-chloro-5-{6-[(3S)-3-hydroxypyrrolidin-1-yl]-2-methoxypyridin-3-yl}-1H-indole-3-carboxylic acid]
6.86 | – | O=C(O)c1c[nH]c2cc(F)c(-c3ccc(C4CCCO4)cc3)c(F)c12 (single isomer, unassigned) [Example 153, 4,6-difluoro-5-[4-(tetrahydrofuran-2-yl)phenyl]-1H-indole-3-carboxylic acid]
6.17 | 78 | O=C(O)c1c[nH]c2cc(F)c(-c3ccc(CO)cc3)cc12 [Example 7, 6-fluoro-5-[4-(hydroxymethyl)phenyl]-1H-indole-3-carboxylic acid]
6.34 | 82 | O=C(O)c1c[nH]c2cc(Cl)c(-c3ccccc3)cc12 [Example 3, 6-Chloro-5-phenyl-1H-indole-3-carboxylic acid]
7.21 | 105 | COC1CCN(CCCOc2ccc(-c3cc4c(C(=O)O)c[nH]c4cc3Cl)cc2)CC1 [Example 187, 6-chloro-5-{4-[3-(4-methoxypiperidin-1-yl)propoxy]phenyl}-1H-indole-3-carboxylic acid]
7.24 | 65.2 | COc1cc(-c2c(F)cc3[nH]cc(C(=O)O)c3c2F)ccc1C1(O)CCC1 [Example 145]
7.05 | 107 | O=C(O)c1c[nH]c2cc(Cl)c(-c3ccc(OCCCO)c(F)c3)cc12 [Example 58, 6-chloro-5-[3-fluoro-4-(3-hydroxypropoxy)phenyl]-1H-indole-3-carboxylic acid]
7.08 | 94 | O=C(O)c1n[nH]c2cc(Cl)c(-c3ccc(CCO)cc3)cc12 [Example 109, 6-Chloro-5-(4-(2-hydroxyethyl)phenyl)-1H-indazole-3-carboxylic acid]
6.24 | 97 | COc1ccc(-c2cc3c(C(=O)O)c[nH]c3cc2C#N)cc1 [Example 32, 6-Cyano-5-(4-methoxyphenyl)-1H-indole-3-carboxylic acid]
8.62 | 112 | O=C(O)c1c[nH]c2cc(Cl)c(-c3ccc(-c4ccccc4O)cc3)cc12 [Example 67, 6-chloro-5-(2′-hydroxybiphenyl-4-yl)-1H-indole-3-carboxylic acid]
6.42 | 96 | O=C(O)c1c[nH]c2cc(Cl)c(-c3ccc(OCCN4CCOCC4)cc3)cc12 [Example 19, 6-chloro-5-{4-[2-(morpholin-4-yl)ethoxy]phenyl}-1H-indole-3-carboxylic acid]
7.75 | 194 | O=C(O)c1c[nH]c2cc(F)c(-c3ccc(C4(CO)CCC4)cc3)cc12 [Example 143, 6-fluoro-5-{4-[1-(hydroxymethyl)cyclobutyl]phenyl}-1H-indole-3-carboxylic acid]
6.69 | 90 | O=C(O)c1n[nH]c2cc(Cl)c(-c3ccc(C4CCCCC4)cc3)cc12 [Example 110, 6-Chloro-5-(4-cyclohexylphenyl)-1H-indazole-3-carboxylic acid]
7.49 | 74 | O=C(O)c1c[nH]c2cc(Cl)c(-c3ccc(OCCCN4CCOCC4=O)cc3)cc12 [Example 54, 6-chloro-5-{4-[3-(3-oxomorpholin-4-yl)propoxy]phenyl}-1H-indole-3-carboxylic acid]
